Results from US20140378416A1, “SILYL-CONTAINING HETEROCYCLIC COMPOUNDS AND METHODS OF USE THEREOF FOR THE TREATMENT OF VIRAL DISEASES” (priority 2011, published 2014).
Read-outs that look alike come from different tables or passages of the source.

Experiments:
HCV replicon 1a Y93H = assay: Cell-based HCV replicon assay (TaqMan), genotype 1a Y93H mutant replicon; conditions: EC90 = concentration for ΔCT=3.2 over baseline
Procedure: (§1) Measurement of inhibition by compounds of the present invention was performed using the HCV replicon system. Several different replicons encoding different HCV genotypes or mutations were used. In addition, potency measurements were made using different formats of the replicon assay, including different ways of measurements and different plating formats. See Jan M. Vrolijk et al., A replicons-based bioassay for the measurement of interferons in patients with chronic hepatitis C, 110 J. VIROLOGICAL METHODS 201 (2003); Steven S. Carroll et al., Inhibition of Hepatitis C Virus RNA Replication by 2′-Modified Nucleoside Analogs, 278(14) J. BIOLOGICAL CHEMISTRY 11979 (2003). However, the underlying principles are common to all of these determinations, and are outlined below.
(§2) Compounds of the present invention were assayed for cell-based anti-HCV activity using the following protocol. Replicon cells were seeded at 5000 cells/well in 96-well collagen I-coated Nunc plates in the presence of the test compound. Various concentrations of test compound, typically in 10 serial 2-fold dilutions, were added to the assay mixture, with the starting concentration ranging from 250 μM to 1 μM. The final concentration of DMSO was 0.5%, fetal bovine serum was 5%, in the assay media. Cells were harvested on day 3 by the addition of 1× cell lysis buffer (Ambion cat #8721). The replicon RNA level was measured using real time PCR (TaqMan® assay). The amplicon was located in 5B. The PCR primers were: 5B.2F, ATGGACAGGCGCCCTGA (SEQ. ID NO. 1); 5B.2R, […] (SEQ. ID NO. 2); the probe sequence was FAM-labeled CACGCCATGCGCTGCGG (SEQ. ID NO. 3). GAPDH RNA was used as endogenous control and was amplified in the same reaction as NS5B (multiplex PCR) using primers and VIC-labeled probe recommended by the manufacturer (PE Applied Biosystem). The real-time […] reactions were run on ABI PRISM 7900HT Sequence Detection System using the following program: 48° C. for 30 minutes, 95° C. for 10 minutes, 40 cycles of 95° C. for 15 sec, 60° C. for 1 minute. The ACT values (CT5B-CTGAPDH) were plotted against the concentration of test compound and fitted to the sigmoid dose-response model using XLfit4 (MDL). EC50 was defined as the concentration of inhibitor necessary to achieve ΔCT=1 over the projected baseline; EC90 the concentration necessary to achieve ΔCT=3.2 over the baseline. Alternatively, to quantitate the absolute amount of replicon RNA, a standard curve was established by including serially diluted T7 transcripts of replicon RNA in the Taqman assay. All TaqMan® reagents were from PE Applied Biosystems. Such an assay procedure was described in detail in e.g. Malcolm et al., Antimicrobial Agents and Chemotherapy 50: 1013-1020 (2006).
(§3) HCV replicon EC50 assay data for various replicons and mutants was calculated for selected compounds of the present invention using this method and is provided in the tables above herein.

HCV replicon 1b = assay: Cell-based HCV replicon assay (TaqMan), genotype 1b replicon; conditions: HCV 1b replicon cells, replicon RNA by TaqMan on day 3, EC90 = concentration for ΔCT=3.2 over baseline
Procedure: as §1, §2, §3

HCV replicon 2b = assay: Cell-based HCV replicon assay (TaqMan), genotype 2b replicon; conditions: EC90 = concentration for ΔCT=3.2 over baseline
Procedure: as §1, §2, §3

HCV replicon 1a = assay: Cell-based HCV replicon assay (TaqMan), genotype 1a replicon; conditions: HCV 1a replicon cells, replicon RNA by TaqMan on day 3, EC90 = concentration for ΔCT=3.2 over baseline
Procedure: as §1, §2, §3

[1] = Hepatitis C virus, 72 h, read-out: 1a Y93H EC90, HCV 1a Y93H mutant replicon cells, replicon RNA by TaqMan on day 3
[2] = Hepatitis C virus, 72 h, read-out: 2b EC90, HCV 2b replicon cells, replicon RNA by TaqMan on day 3

Row | SMILES | EC90 (HCV replicon 1a Y93H; [1]) [nM] | EC90 (HCV replicon 1b; Hepatitis C virus, 72 h) [nM] | EC90 (HCV replicon 2b; [2]) [nM] | EC90 (HCV replicon 1a; Hepatitis C virus, 72 h) [nM] | EC90 (HCV replicon 1a Y93H; read-out: 1a Y93H EC90, HCV 1a Y93H mutant replicon cells, replicon RNA by TaqMan on day 3) [nM] | EC90 (HCV replicon 1b) [nM] | EC90 (HCV replicon 1a) [nM] | EC90 (HCV replicon 2b; read-out: 2b EC90, HCV 2b replicon cells, replicon RNA by TaqMan on day 3) [nM]
1 | COC(=O)N[C@H](C(=O)N1CCC[C@H]1c1ncc(-c2ccc(-c3ccc(-c4cnc([C@@H]5C[Si](C)(C)CN5C(=O)[C@@H](NC(=O)OC)C(C)(C)OC)[nH]4)cc3)cc2)[nH]1)C(C)(C)OC [Compound 35] | > 1000 | 0.09 | > 1000 | – | – | – | – | –
2 | COC(=O)N[C@@H](C(=O)N1CCC[C@@H]1c1ncc(-c2ccc(-c3ccc(-c4cnc([C@H]5C[Si](C)(C)CN5C(=O)[C@H](NC(=O)OC)C5CCCOCC5)[nH]4)cc3)cc2)[nH]1)C1CCCOCC1 (stereo partly shown) [Compound 21] | 1000 | 18.7 | 204 | 4.42 | – | – | – | –
3 | COC(=O)N[C@H](C(=O)N1CCC[C@H]1c1ncc(-c2ccc(-c3ccc(-c4cnc([C@@H]5C[Si](C)(C)CN5C(=O)[C@@H](NC(=O)OC)C5CCCCC5)[nH]4)cc3)cc2)[nH]1)C1CCCCC1 [Compound 34] | > 1000 | 0.04 | 648 | 2.5 | – | – | – | –
4 | COC(=O)N[C@@H](C)C(=O)N1CCC[C@@H]1c1ncc(-c2ccc(-c3ccc(-c4cnc([C@H]5C[Si](C)(C)CN5C(=O)[C@H](C)NC(=O)OC)[nH]4)cc3)cc2)[nH]1 [Compound 18] | 1000 | 1000 | 1000 | 988 | – | – | – | –
5 | COC(=O)N[C@H](C(=O)N1C[Si](C)(C)C[C@H]1c1ncc(-c2ccc(-c3ccc(-c4cnc([C@@H]5C[C@H]6C[C@H]6N5C(=O)[C@@H](NC(=O)OC)C(C)C)[nH]4)cc3)cc2)[nH]1)C(C)C [Compound 8] | > 100 | 0.002 | 249 | 0.029 | – | – | – | –
6 | CC[C@H](C)[C@H](NC(=O)OC)C(=O)N1CCC[C@H]1c1ncc(-c2ccc(-c3ccc(-c4cnc([C@@H]5C[Si](C)(C)CN5C(=O)[C@@H](NC(=O)OC)[C@@H](C)CC)[nH]4)cc3)cc2)[nH]1 [Compound 30] | – | – | – | – | 610 | 7.63 | 1.33 | 248
7 | CC[C@@H](O)[C@H](NC(=O)OC)C(=O)N1CCC[C@H]1c1ncc(-c2ccc(-c3ccc(-c4cnc([C@@H]5C[Si](C)(C)CN5C(=O)[C@@H](NC(=O)OC)[C@H](O)CC)[nH]4)cc3)cc2)[nH]1 [Compound 38] | > 1000 | 0.21 | > 1000 | – | – | – | – | –
8 | COC(=O)N[C@H](C(=O)N1CCC[C@H]1c1ncc(-c2ccc(-c3ccc(-c4cnc([C@@H]5C[Si](C)(C)CN5C(=O)[C@@H](NC(=O)OC)[C@@H](C)OC)[nH]4)cc3)cc2)[nH]1)[C@@H](C)OC [Compound 25] | 1000 | 4.77 | 136 | 0.72 | – | – | – | –
9 | COC(=O)N[C@H](C(=O)N1CCC[C@H]1c1ncc(-c2ccc(-c3ccc(-c4cnc([C@@H]5C[Si](C)(C)CN5C(=O)[C@@H](NC(=O)OC)C5CCCC5)[nH]4)cc3)cc2)[nH]1)C1CCCC1 [Compound 24] | 1000 | 17.3 | 382 | 2.91 | – | – | – | –
10 | COC(=O)N[C@@H](Cn1ncnn1)C(=O)N1CCC[C@H]1c1ncc(-c2ccc(-c3ccc(-c4cnc([C@@H]5C[Si](C)(C)CN5C(=O)[C@H](Cn5ncnn5)NC(=O)OC)[nH]4)cc3)cc2)[nH]1 [Compound 27] | 1000 | 2.17 | 138 | 6.11 | – | – | – | –
11 | COC(=O)N[C@H](C(=O)N1CCC[C@H]1c1ncc(-c2ccc(-c3ccc(-c4cnc([C@@H]5C[Si](C)(C)CN5C(=O)[C@@H](NC(=O)OC)[C@H](O)C(C)C)[nH]4)cc3)cc2)[nH]1)[C@H](O)C(C)C [Compound 39] | > 1000 | 0.03 | 510 | – | – | – | – | –
12 | COC(=O)NC1(C(=O)N2CCC[C@@H]2c2ncc(-c3ccc(-c4ccc(-c5cnc([C@H]6C[Si](C)(C)CN6C(=O)C6(NC(=O)OC)CC6)[nH]5)cc4)cc3)[nH]2)CC1 [Compound 20] | 1000 | 1000 | 1000 | 1000 | – | – | – | –
13 | COC(=O)N[C@H](C(=O)N1CCC[C@@H]1c1ncc(-c2ccc(-c3ccc(-c4cnc([C@H]5C[Si](C)(C)CN5C(=O)[C@@H](NC(=O)OC)c5ccccc5)[nH]4)cc3)cc2)[nH]1)c1ccccc1 [Compound 19] | 1000 | 11 | 999 | 25.5 | – | – | – | –
14 | COC(=O)N[C@H](C(=O)N1CCC[C@H]1c1ncc(-c2ccc(-c3ccc(-c4cnc([C@@H]5C[Si](C)(C)CN5C(=O)[C@@H](NC(=O)OC)C5CCOCC5)[nH]4)cc3)cc2)[nH]1)C1CCOCC1 [Compound 33] | 43 | 0.09 | 7.6 | – | – | – | – | –
15 | COC(=O)N[C@@H](CC(C)(C)C)C(=O)N1CCC[C@H]1c1ncc(-c2ccc(-c3ccc(-c4cnc([C@@H]5C[Si](C)(C)CN5C(=O)[C@H](CC(C)(C)C)NC(=O)OC)[nH]4)cc3)cc2)[nH]1 [Compound 36] | 617 | 0.03 | 434 | – | – | – | – | –
16 | CC(C)(C)OC(=O)N1C[Si](C)(C)C[C@H]1c1ncc(-c2ccc(-c3ccc(-c4cnc([C@@H]5C[C@H]6C[C@H]6N5C(=O)OC(C)(C)C)[nH]4)cc3)cc2)[nH]1 [Compound 46] | > 1000 | – | 422 | > 1000 | – | – | – | –
17 | COC(=O)N[C@@H](CSC)C(=O)N1CCC[C@H]1c1ncc(-c2ccc(-c3ccc(-c4cnc([C@@H]5C[Si](C)(C)CN5C(=O)[C@H](CSC)NC(=O)OC)[nH]4)cc3)cc2)[nH]1 [Compound 32] | > 1000 | 0.03 | 144 | – | – | – | – | –
18 | COC(=O)NC1(C(=O)N2CCC[C@H]2c2ncc(-c3ccc(-c4ccc(-c5cnc([C@@H]6C[Si](C)(C)CN6C(=O)C6(NC(=O)OC)CCC6)[nH]5)cc4)cc3)[nH]2)CCC1 [Compound 31] | > 1000 | 2.2 | > 1000 | – | – | – | – | –
19 | COC(=O)N[C@H](C(=O)N1C[Si](C)(C)C[C@H]1c1ncc(-c2ccc(-c3ccc(-c4[nH]c([C@@H]5CCCN5C(=O)[C@@H](NC(=O)OC)C5CCOCC5)nc4C4CC4)cc3)cc2)[nH]1)C1CCOCC1 [Compound 66] | 88 | – | 1.6 | 0.07 | – | – | – | –
20 | COC(=O)N[C@@H](CC1CC1)C(=O)N1CCC[C@H]1c1ncc(-c2ccc(-c3ccc(-c4cnc([C@@H]5C[Si](C)(C)CN5C(=O)[C@H](CC5CC5)NC(=O)OC)[nH]4)cc3)cc2)[nH]1 [Compound 37] | 425 | 0.03 | 888 | – | – | – | – | –
21 | COC(=O)N[C@H](C(=O)N1C[Si](C)(C)C[C@H]1c1nc(Cl)c(-c2ccc(-c3ccc(-c4[nH]c([C@@H]5C[C@H]6C[C@H]6N5C(=O)[C@@H](NC(=O)OC)C(C)C)nc4Cl)cc3)cc2)[nH]1)C(C)C [Compound 51] | 13.7 | – | 2.9 | 0.008 | – | – | – | –
22 | CC(C)(C)OC(=O)N1C[Si](C)(C)C[C@H]1c1nc(Cl)c(-c2ccc(-c3ccc(-c4[nH]c([C@@H]5C[C@H]6C[C@H]6N5C(=O)OC(C)(C)C)nc4Cl)cc3)cc2)[nH]1 [Compound 49] | > 1000 | – | > 1000 | > 1000 | – | – | – | –
23 | COC(=O)N[C@H](C(=O)N1C[Si](C)(C)C[C@H]1c1ncc(-c2ccc(-c3ccc(-c4[nH]c([C@@H]5CCCN5C(=O)[C@@H](NC(=O)OC)C(C)C)nc4Cl)cc3)cc2)[nH]1)C(C)C [Compound 64] | 344 | – | 99 | 0.17 | – | – | – | –
